Test results taken from paper PMC10500703 (Journal of medicinal chemistry, 2021).
In brackets after ≈: the same amount, converted by molar mass. Where two headings read alike, the source gives them in different places.

Key:
Mtb H37Rv [1] = test: microbe, parasite or virus in culture; details: Mycobacterium tuberculosis
[2] = Mouse PK, intravenous dosing; format: in vivo; details: for CLb: total body clearance from whole blood; for half-life at 24 h: in vivo, iv, 2 mg/kg
physchem = details: pH 7
replicating Mtb = format: cell-based, Mycobacterium tuberculosis
[3] = format: in vivo, mouse; details: for exposure on oral dosing: oral dosing (data not shown)
non-replicating Mtb = format: cell-based, Mycobacterium tuberculosis
Mtb isolate S1125 = test: microbe, parasite or virus in culture; format: cell-based; details: Mycobacterium tuberculosis
Human plasma protein = Human plasma protein binding; format: in vitro ADME; details: fraction unbound
[4] = aqueous pH 7.4 phosphate buffer simulating thermodynamic conditions
Microsomal clearance [5] = format: in vitro ADME; details: mouse microsomes
intracellular Mtb = format: cell-based, Mycobacterium tuberculosis; details: read-out: IC90 against intracellular Mtb
Microsomal clearance [6] = format: in vitro ADME; details: rat microsomes
LogD = format: physicochemical
Mtb H37Rv [7] = system: Mtb H37Rv
Mtb Erdman strain = format: cell-based, Mycobacterium tuberculosis
Microsomal clearance [8] = format: in vitro ADME; details: human microsomes
Mtb H37RvMA = format: cell-based, Mycobacterium tuberculosis

CS(=O)(=O)NC(=O)CCc1cn(-c2ccc(Cl)cc2)nc1-c1ccncc1 [Compound 35, 3-(1-(4-chlorophenyl)-3-(pyridin-4-yl)-1H-pyrazol-4-yl)-N-(methylsulfonyl)propanamide]
MIC (Mtb H37Rv [1]): 6.25 µM (≈ 2.53 µg/mL)

CS(=O)(=O)NC(=O)C1CC1c1cn(-c2ccc(Br)cc2)nc1-c1ccncc1 (stereo not shown) [Compound 41, 2-(1-(4-bromophenyl)-3-(pyridin-4-yl)-1H-pyrazol-4-yl)-N-(methylsulfonyl)cyclopropane-1-carboxamide]
MIC (Mtb H37Rv [1]): 12.5 to 19 µM (≈ 5.77 to 8.77 µg/mL)

CS(=O)(=O)NC(=O)CCc1cn(-c2ccc(C(F)(F)F)nc2)nc1-c1ccc(Cl)cc1 [Compound 10, 3-(3-(4-chlorophenyl)-1-(6-(trifluoromethyl)pyridin-3-yl)-1H-pyrazol-4-yl)-N-(methylsulfonyl)propanamide]
CLb ([2]; intravenous 2 mg/kg): 67.4 mL/min/kg

CS(=O)(=O)NC(=O)/C=C/c1cn(-c2ccc(Cl)cc2)nc1-c1ccncc1 [Compound 38, (E)-3-(1-(4-chlorophenyl)-3-(pyridin-4-yl)-1H-pyrazol-4-yl)-N-(methylsulfonyl)acrylamide]
CLb ([2]; intravenous 2 mg/kg): > 200 mL/min/kg

CS(=O)(=O)NC(=O)/C=C/c1cn(-c2ccc(Br)cc2)nc1-c1ccncc1 [Compound 39, (E)-3-(1-(4-bromophenyl)-3-(pyridin-4-yl)-1H-pyrazol-4-yl)-N-(methylsulfonyl)acrylamide]
MIC (Mtb H37Rv [1]): 1.2 to 4.7 µM (≈ 0.537 to 2.1 µg/mL) | solubility (physchem): 185 µM (≈ 82.8 µg/mL)

CS(=O)(=O)NC(=O)CCc1cn(-c2ccc(F)cc2)nc1-c1ccc(Cl)cc1 [Compound 3, 3-(3-(4-chlorophenyl)-1-(4-fluorophenyl)-1H-pyrazol-4-yl)-N-(methylsulfonyl)propanamide]
MIC (Mtb H37Rv [1]): ≥ 50 µM

CS(=O)(=O)NC(=O)CCc1cn(-c2ccc(Br)cc2)nc1-c1ccc(Cl)cc1 [Compound 1, 3-(1-(4-bromophenyl)-3-(4-chlorophenyl)-1H-pyrazol-4-yl)-N-(methylsulfonyl)propanamide]
half-life at 24 h [2]: 2 h | CLb ([2]; intravenous 2 mg/kg): 1.18 mL/min/kg | log CFU reduction (replicating Mtb): 2–2.5 log CFU | exposure on oral dosing [3]: high exposure | activity against non-replicating Mtb (non-replicating Mtb): not active

CS(=O)(=O)NC(=O)CCc1cc(-c2ccc(Br)cc2)nn1-c1ccc(Cl)cc1 [Compound 51, 3-(3-(4-bromophenyl)-1-(4-chlorophenyl)-1H-pyrazol-5-yl)-N-(methylsulfonyl)propanamide]
CLb ([2]; intravenous 2 mg/kg): 3.13 mL/min/kg | exposure on oral dosing [3]: high exposure

CS(=O)(=O)NC(=O)NCc1cn(-c2ccc(Cl)cc2)nc1-c1ccncc1 [Compound 43, N-(((1-(4-chlorophenyl)-3-(pyridin-4-yl)-1H-pyrazol-4-yl)methyl)carbamoyl)methanesulfonamide]
half-life at 24 h [2]: 2 h | CLb ([2]; intravenous 2 mg/kg): > 200 mL/min/kg

CS(=O)(=O)NC(=O)OCc1cn(-c2ccc(Cl)cc2)nc1-c1ccncc1 [Compound 45, (1-(4-chlorophenyl)-3-(pyridin-4-yl)-1H-pyrazol-4-yl)methyl (methylsulfonyl)carbamate]
CLb ([2]; intravenous 2 mg/kg): > 200 mL/min/kg | MIC (Mtb H37Rv [1]): 12.5 µM (≈ 5.09 µg/mL)

CS(=O)(=O)NC(=O)NCc1cc(-c2ccc(Br)cc2)oc1-c1ccncc1 [Compound 58, N-(((5-(4-bromophenyl)-2-(pyridin-4-yl)furan-3-yl)methyl)carbamoyl)methanesulfonamide]
CLb ([2]; intravenous 2 mg/kg): > 200 mL/min/kg

CS(=O)(=O)NC(=O)CCc1nn(-c2ccc(Br)cc2)cc1-c1ccc(Cl)cc1 [Compound 53, 3-(1-(4-bromophenyl)-4-(4-chlorophenyl)-1H-pyrazol-3-yl)-N-(methylsulfonyl)propanamide]
MIC (Mtb H37Rv [1]): ≥ 50 µM

CS(=O)(=O)NC(=O)CCc1cn(-c2ccc(Br)cc2)nc1-c1cccc(Cl)c1 [Compound 14, 3-(1-(4-bromophenyl)-3-(3-chlorophenyl)-1H-pyrazol-4-yl)-N-(methylsulfonyl)propanamide]
MIC (Mtb H37Rv [1]): 2.3 µM (≈ 1.11 µg/mL)

CS(=O)(=O)NC(=O)C1CC1c1cn(-c2ccc(Cl)cc2)nc1-c1ccncc1 (stereo not shown) [Compound 40, 2-(1-(4-chlorophenyl)-3-(pyridin-4-yl)-1H-pyrazol-4-yl)-N-(methylsulfonyl)cyclopropane-1-carboxamide]
CLb ([2]; intravenous 2 mg/kg): > 200 mL/min/kg | MIC (Mtb H37Rv [1]): 12.5 to 19 µM (≈ 5.21 to 7.92 µg/mL)

CS(=O)(=O)NC(=O)CCc1cn(-c2ccc(Br)cc2)nc1C1CCN(C=O)CC1 [Compound 22, 3-(1-(4-bromophenyl)-3-(1-formylpiperidin-4-yl)-1H-pyrazol-4-yl)-N-(methylsulfonyl)propanamide]
MIC (Mtb H37Rv [1]): ≥ 50 µM

CS(=O)(=O)NC(=O)CCc1cn(-c2ccc(Br)cc2)nc1-c1ccc([N+](=O)[O-])cc1 [Compound 23, 3-(1-(4-bromophenyl)-3-(4-nitrophenyl)-1H-pyrazol-4-yl)-N-(methylsulfonyl)propanamide]
MIC (Mtb H37Rv [1]): 12.5 µM (≈ 6.17 µg/mL)

CS(=O)(=O)NC(=O)CCc1cn(-c2ccc(Br)cc2)nc1-c1ccncc1 [Compound 16, 3-(1-(4-bromophenyl)-3-(pyridin-4-yl)-1H-pyrazol-4-yl)-N-(methylsulfonyl)propanamide]
CLb ([2]; intravenous 2 mg/kg): > 200 mL/min/kg | log CFU reduction (replicating Mtb): 2–2.5 log CFU | activity against non-replicating Mtb (non-replicating Mtb): not active | MIC (Mtb isolate S1125): 15 to 30 µM (≈ 6.74 to 13.5 µg/mL)

CCS(=O)(=O)NC(=O)CCc1cn(-c2ccc(Br)cc2)nc1-c1ccc(Cl)cc1 [Compound 33, 3-(1-(4-bromophenyl)-3-(4-chlorophenyl)-1H-pyrazol-4-yl)-N-(ethylsulfonyl) propanamide]
MIC (Mtb H37Rv [1]): 12.5 µM (≈ 6.21 µg/mL)

CS(=O)(=O)NC(=O)CCc1cn(-c2ccc(Br)cc2)nc1C1CCOCC1 [Compound 20, 3-(1-(4-bromophenyl)-3-(tetrahydro-2H-pyran-4-yl)-1H-pyrazol-4-yl)-N-(methylsulfonyl)propanamide]
CLb ([2]; intravenous 2 mg/kg): 145 mL/min/kg

O=c1[nH]c(CCc2cn(-c3ccc(Br)cc3)nc2-c2ccc(Cl)cc2)no1 [Compound 47, 3-(2-(1-(4-bromophenyl)-3-(4-chlorophenyl)-1H-pyrazol-4-yl)ethyl)-1,2,4-oxadiazol-5(4H)-one]
MIC (Mtb H37Rv [1]; 336 h): ≥ 50 µM

CS(=O)(=O)NC(=O)CCc1cn(-c2ccc(Br)cc2)nc1-c1cccnc1 [Compound 17, 3-(1-(4-bromophenyl)-3-(pyridin-3-yl)-1H-pyrazol-4-yl)-N-(methylsulfonyl)propanamide]
CLb ([2]; intravenous 2 mg/kg): 178 mL/min/kg

CC(CC(=O)NS(C)(=O)=O)c1cn(-c2ccc(Cl)cc2)nc1-c1ccncc1 (stereo not shown) [Compound 37, 3-(1-(4-chlorophenyl)-3-(pyridin-4-yl)-1H-pyrazol-4-yl)-N-(methylsulfonyl)butanamide]
MIC (Mtb H37Rv [1]): ≥ 50 µM

3-(1,3-bis(4-chlorophenyl)-1H-pyrazol-5-yl)-N-(methylsulfonyl)propanamide [Compound 8]
AUC0 – t ([2]; intravenous 2 mg/kg): 4883 µmol·min/L | Vd ([2]; intravenous 2 mg/kg): 1.2 L/kg | t½ terminal ([2]; intravenous 2 mg/kg): 3.6 h | CLb ([2]; intravenous 2 mg/kg): 2.56 mL/min/kg | Human PPB fu (Human plasma protein): 0.023 | solubility [4]: 100 µM | Microsomal clearance % remaining, Mouse (Microsomal clearance [5]): 87% | IC90 (intracellular Mtb): 11 µM | Microsomal clearance % remaining, Rat (Microsomal clearance [6]): > 99% | LogD (LogD): 2.0 | log CFU reduction (replicating Mtb): 2–2.5 log CFU | exposure on oral dosing [3]: high exposure | bioavailability ([3]; oral dosing, even at high doses): > 95% | MIC (Mtb H37Rv [7]): 4.7 µM | activity against non-replicating Mtb (non-replicating Mtb): not active | MIC against the Mtb Erdman strain (Mtb Erdman strain): 9.1 µM | Microsomal clearance % remaining, Human (Microsomal clearance [8]): 98% | MIC (Mtb H37RvMA): 4 µM
